Source: PMC7190985 (Frontiers in Microbiology, 2020)
Entries after “also recorded” stand apart in the source; their conditions may differ.

Assays:
in vitro = conditions: human
VACV WR-Luc virus = format: cell-based
VACV-WR-GFP virus = experiment: microbe, parasite or virus in culture; format: cell-based; conditions: Orthopoxvirus vaccinia, HeLa, 24 h; for IC50: read-out: IC50 (50% inhibition of viral spread); for IC90: read-out: IC90 (90% inhibition of viral spread)
VACV WR A4-YFP = format: cell-based, vaccinia virus
VACV IHDJ virus = format: cell-based, vaccinia virus
VACV WR = format: cell-based, vaccinia virus
luciferase = luciferase (Photinus pyralis, UniProt P08659); format: biochemical
Chain of luciferase (P08659 whole entry): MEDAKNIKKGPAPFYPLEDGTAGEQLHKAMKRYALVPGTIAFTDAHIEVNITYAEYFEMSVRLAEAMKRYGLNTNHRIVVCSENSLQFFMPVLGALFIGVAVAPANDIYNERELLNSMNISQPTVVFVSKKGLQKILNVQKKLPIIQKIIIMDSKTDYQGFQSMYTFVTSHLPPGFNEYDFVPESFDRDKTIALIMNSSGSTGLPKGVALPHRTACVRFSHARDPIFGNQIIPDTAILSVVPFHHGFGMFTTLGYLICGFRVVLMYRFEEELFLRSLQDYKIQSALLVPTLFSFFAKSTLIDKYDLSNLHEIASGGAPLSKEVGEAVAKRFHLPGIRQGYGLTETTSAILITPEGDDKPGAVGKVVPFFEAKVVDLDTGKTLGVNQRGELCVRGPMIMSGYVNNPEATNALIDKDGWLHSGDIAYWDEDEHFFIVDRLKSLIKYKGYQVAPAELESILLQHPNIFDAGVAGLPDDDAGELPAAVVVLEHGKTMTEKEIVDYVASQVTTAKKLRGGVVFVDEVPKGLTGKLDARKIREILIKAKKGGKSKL

SMILES	CC50 (in vitro) [µM]	viral entry (luciferase RLU) (VACV WR-Luc virus)	IC50 (VACV-WR-GFP virus) [µM]	IC90 (VACV-WR-GFP virus) [µM]	virus-loaded actin tails per cell (VACV WR A4-YFP)	MV yield / MV formation (VACV IHDJ virus)	luciferase activity (viral entry) (VACV WR-Luc virus)	viral plaque size, wild-type virus (VACV WR)	luciferase enzyme activity (RLU) (luciferase)
O=C1CN(C(=O)c2nccs2)C(c2cc(Cl)cc(Cl)c2)c2cc(Cl)ccc2N1 (centres unmarked) [PA24]	> 400	did not markedly decrease viral entry; also recorded: reduced viral entry	1	1.8	significant decrease in virus-loaded tails				
O=C1CN(C(=O)c2nccs2)C(c2cccc(Cl)c2)c2cc(Br)ccc2N1 (centres unmarked) [PA104]	> 400	a decrease in viral entry was observed	0.5	1.3	significant decrease in virus-loaded tails	small reduction in MV yield	observable reduction in luciferase activity	maximal inhibition of plaque size	does not impact luciferase enzyme activity
CCC(=O)N1CC(=O)Nc2ccc(Br)cc2C1c1ccccc1 (centres unmarked) [Retro 1]	> 400		3	7.2					
Cc1ccc(/C=N/c2ccccc2C(=O)Nc2ccccc2)s1 [Retro 2]	> 400		2.2	5.5					
O=C(NN1C(=O)[C@@H]2[C@@H]3C=C[C@@H]([C@H]4C[C@@H]34)[C@@H]2C1=O)c1ccc(C(F)(F)F)cc1 [ST-246]	> 400		0.04	0.1					
